Data: ChEMBL document CHEMBL1126409, “Synthesis and biological activity of nor- and homo-5,10-dideazatetrahydrofolic acid” (Bioorg Med Chem Lett, 1992)
≈ marks a conversion by molar mass, not a printed value.

How the values were obtained:
[1] = tested on: CCRF-CEM; assay: The compound was tested for its cytotoxicity against CCRF-CEM human leukemic cells using 72 hrs assay; assay type: functional, cell-based
[2] = target: T1, Trifunctional purine biosynthetic protein adenosine-3 (Mus musculus, UniProt Q64737); assay: Inhibitory activity against glycinamide ribonucleotide formyltransferase (GARFT) from L1210 murine leukemic cells; assay type: cell-based
T1 sequence (Q64737 whole entry): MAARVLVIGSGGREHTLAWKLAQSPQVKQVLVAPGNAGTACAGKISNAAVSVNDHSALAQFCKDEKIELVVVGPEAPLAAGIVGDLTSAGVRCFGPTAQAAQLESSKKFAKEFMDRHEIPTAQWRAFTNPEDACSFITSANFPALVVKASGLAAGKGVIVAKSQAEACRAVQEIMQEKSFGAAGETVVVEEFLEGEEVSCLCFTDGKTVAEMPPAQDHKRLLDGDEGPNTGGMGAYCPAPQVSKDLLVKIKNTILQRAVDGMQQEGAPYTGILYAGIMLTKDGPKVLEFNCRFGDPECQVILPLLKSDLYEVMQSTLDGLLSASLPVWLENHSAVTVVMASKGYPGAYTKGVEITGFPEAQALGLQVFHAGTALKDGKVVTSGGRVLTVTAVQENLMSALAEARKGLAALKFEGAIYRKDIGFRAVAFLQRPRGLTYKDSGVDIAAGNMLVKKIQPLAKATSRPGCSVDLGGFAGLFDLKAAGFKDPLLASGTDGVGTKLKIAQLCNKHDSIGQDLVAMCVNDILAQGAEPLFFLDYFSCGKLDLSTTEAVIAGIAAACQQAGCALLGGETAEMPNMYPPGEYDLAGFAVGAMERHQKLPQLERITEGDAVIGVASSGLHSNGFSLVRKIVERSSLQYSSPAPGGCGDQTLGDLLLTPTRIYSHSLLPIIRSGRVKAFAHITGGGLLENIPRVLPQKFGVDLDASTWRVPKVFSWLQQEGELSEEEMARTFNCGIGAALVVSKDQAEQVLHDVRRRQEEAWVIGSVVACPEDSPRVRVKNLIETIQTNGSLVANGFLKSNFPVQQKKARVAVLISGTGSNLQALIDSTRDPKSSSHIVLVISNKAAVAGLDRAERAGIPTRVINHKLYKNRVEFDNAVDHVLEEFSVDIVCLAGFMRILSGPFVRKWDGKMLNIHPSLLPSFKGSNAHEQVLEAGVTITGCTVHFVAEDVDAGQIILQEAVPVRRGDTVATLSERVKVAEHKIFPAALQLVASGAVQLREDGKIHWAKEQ

Structure (SMILES) | IC50 [1] [ng/mL] | Ki [2] [nM]
Nc1nc(O)c2c(n1)NCC(CCCc1ccc(C(=O)N[C@H](CCC(=O)O)C(=O)O)cc1)C2 (stereo not given in full) | 8 (≈ 0.0175 µM) | 
Nc1nc(O)c2c(n1)NCC(Cc1ccc(C(=O)N[C@H](CCC(=O)O)C(=O)O)cc1)C2 (stereo not given in full) | 26 (≈ 0.0605 µM) | 0.00063
Nc1nc2c(c(=O)[nH]1)C[C@@H](CCc1ccc(C(=O)N[C@@H](CCC(=O)O)C(=O)O)cc1)CN2 [LOMETREXOL] | 7 (≈ 0.0158 µM) | 120
